Where two headings read alike, the source gives them in different places.
Legend:
CVB-3 = experiment: Anticoxsackieviral HI-HeLa Cell Culture Assay (XTT dye reduction); assay type: cell-based, Coxsackie strain B-3 (CVB-3); conditions: HI-HeLa cells infected with CVB-3, m.o.i. 0.08, one day
Procedure: (§1) Specifically, HI-HeLa cells were infected wtih […] at a multiplicity of infection (m.o.i.) of 0.08 or mock-infected with medium only. Infected or mock-infected cells were resuspended at 8×10^5 cells per mL and incubated with appropriate concentrations of compound. One day later, XTT/PMS were added to test plates and the amount of formazan produced was quantified spectrophotometrically at 450/650 nm. […] The therapeutic index (TI) was calculated by dividing the CC50 by the EC50.
(§2) The Coxsackie strain B-3 (CVB-3) was purchased from American Type Culture Collection (ATCC). Virus stocks were propgated and antiviral assays were performed in Hi-HeLa cells (ATCC). Cells were grown in Minimal Essential Medium with 10% fetal bovine serum.

HRV-14 = experiment: Antirhinoviral HI-HeLa Cell Culture Assay (Cell Protection Assay, XTT dye reduction); assay type: cell-based, human rhinovirus (HRV) serotype-14; conditions: HI-HeLa cells infected with HRV-14, m.o.i. 0.13, two days, XTT, read-out: EC50
In short: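 Protection measured via XTT dye reduction (450/650 nm) two days after compound treatment of HI-HeLa cells, mock-infected or infected with cDNA-derived HRV-14 at m.o.i. 0.13. CC50 divided by EC50 gives the therapeutic index.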

[1] = biological target: T1, Recombinant Rhinovirus 3C protease (RVP) serotype-14 (Human rhinovirus 14, UniProt P03303); experiment: Inhibition of Rhinovirus Protease (fluorescence resonance energy transfer assay), serotype 14; assay type: biochemical, human rhinovirus (HRV); conditions: for kobs/I: progress curves in enzyme start experiments; for kinact/KI: pH 7.6, read-out: kobs/I
T1 construct: Recombinant Rhinovirus 3C proteases from serotypes 14, 16, 2 or 89; made in house

HI-HeLa cells [2] = experiment: Cytotoxicity in mock-infected HI-HeLa cells (antirhinoviral assay, XTT); assay type: cell-based
[3] = tested on: Human Rhinovirus-serotype 10 (HRV-10); experiment: Normal Human Bronchial Epithelial Cell Assay (MTT); assay type: cell-based; conditions: normal human bronchial cells, HRV-10 at m.o.i. 10, 3-4 days at 34° C., read-out: ED50 (the source's name)
Procedure: Normal human bronchial cells were obtained from cadavers and cultured. The cells were plated at 2×10^4 per well in a […] plate. They were allowed to adhere and grow for 24 hours in 200 μL of serum-free bronchial/tracheal epithelial cell growth medium at 37° C. with 5% CO2. Human Rhinovirus-serotype 10 (HRV-10) was purchased from American Type Culture Collection (ATCC). To start the assay, the supernatant was removed, and HRV-10 at an m.o.i. of 10 (virus particles/cell) was added to each well along with the appropriate amount of compound of formula I or II. The plate was then incubated at 34° C. After 3 hours the supernatant was removed, and 200 μL of media was added along with the same concentration of compound as used in the beginning of the assay. The plates were incubated for 3-4 days at 34° C. To determine the amount of cell growth, an MTT assay (0.5 mgs/mL), as described in Mosmann, T. J. J. Immunol. Methods 1983, 65, 55-63, which is incorporated herein by reference, was performed on the cells, and the plate was read at an optical density of 540 nm. The compounds were tested against control compound Pirodavir, obtained from Janssen Pharmaceuticals. The EC50 was measured as described above for the HI-HeLa Cell Culture Assay.

HI-HeLa cells [4] = experiment: Cytotoxicity in mock-infected HI-HeLa cells (anticoxsackieviral assay, XTT); assay type: cell-based
Procedure: as §1, with “The ability of compounds to protect calls against CVB-3 infection was measured by the XTT dye reduction method, which is described in Weislow, O. S., R. Kiser, D. L. Fine, J. Bader, R. H. Shoemaker, and M. R. Boyd, 1989, J. Natl. Cancer Inst. 81:577-586, which is incorporated herein by reference. Specifically,” for “Specifically,”
as §2

[5] = Cytotoxicity in mock-infected HI-HeLa cells (antirhinoviral assay, XTT); assay type: cell-based; conditions: human
[6] = biological target: T2, Recombinant Rhinovirus 3C protease (RVP) serotype 16 (Human rhinovirus 16, UniProt Q82122); experiment: Inhibition of Rhinovirus Protease (fluorescence resonance energy transfer assay), serotype 16; assay type: biochemical, human rhinovirus (HRV); conditions: pH 7.6; RVP serotype 16; progress curves in enzyme start experiments; read-out: kobs/I
T2 construct: Recombinant Rhinovirus 3C proteases from serotypes 14, 16, 2 or 89; made in house
Procedure: (§3) Stock solution (50 mM, in DMSO) of various compounds were prepared; dilutions were in the same solvent. Recombinant Rhinovirus 3C proteases from serotypes 14, 16, 2 or 89 were prepared by the following standard chromatographic procedures: (1) ion exchange using Q Sepharose Fast Flow from Pharmacia; (2) affinity chromatography using Affi-Gel Blue from Biorad; and (3) sizing using Sephadex G-100 from Pharmacia. Assays contained 2% DMSO, 50 mM tris pH 7.6, 1 mM EDTA, a compound at the indicated concentrations, approximately 1 μM substrate, and 50-100 nM protease. […] The kobs/I values were obtained from reactions initiated by addition of enzyme rather than substrate. RVP activity is measured in the fluorescence resonance energy transfer assay. The substrate was (N-terminal) DABCYL-([…]Gyl)-EDANS. In the uncleaved peptide, the EDANS fluorescence was quenched by the proximal DABCYL moeity. When the peptide was cleaved, the quenching was relieved, and activity was measured as an increase in fluorescence signal.
(§4) In the above table, all data is RVP serotype-14 unless otherwise noted in parentheses. All strains of human rhinovirus (HRV) were purchased from American Type Culture Collection (ATCC), except for serotype 14, which was produced from the infectious cDNA clone constructed and supplied to us by Dr. Roland Rueckert at the Institute for Molecular Virology, University of Wisconsin, Madison, Wisc. […] The data in the column designated kobs/I was measured from progress curves in enzyme start experiments.

[7] = biological target: T3, Recombinant Rhinovirus 3C protease (RVP) serotype 2 (Human rhinovirus 2, UniProt P04936); experiment: Inhibition of Rhinovirus Protease (fluorescence resonance energy transfer assay), serotype 2; assay type: biochemical, human rhinovirus (HRV)
T3 construct: Recombinant Rhinovirus 3C proteases from serotypes 14, 16, 2 or 89; made in house
Procedure: as §3, §4

[8] = biological target: T4, Recombinant Rhinovirus 3C protease (RVP) serotype 89 (Human rhinovirus A serotype 89, UniProt P07210); experiment: Inhibition of Rhinovirus Protease (fluorescence resonance energy transfer assay), serotype 89; assay type: biochemical, human rhinovirus (HRV)
T4 construct: Recombinant Rhinovirus 3C proteases from serotypes 14, 16, 2 or 89; made in house
Procedure: as §3
In the above table, all data is RVP serotype-14 unless otherwise noted in parentheses. […] The data in the column designated kobs/I was measured from progress curves in enzyme start experiments.

[9] = Cytotoxicity in mock-infected HI-HeLa cells (anticoxsackieviral assay, XTT); assay type: cell-based; conditions: human; mock-infected HI-HeLa cells; one day; XTT
Procedure: as §1, with “The ability of compounds to protect calls against CVB-3 infection was measured by the XTT dye reduction method, which is described in Weislow, O. S., R. Kiser, D. L. Fine, J. Bader, R. H. Shoemaker, and M. R. Boyd, 1989, J. Natl. Cancer Inst. 81:577-586, which is incorporated herein by reference. Specifically,” for “Specifically,”
as §2

[10] = mock-infected HI-HeLa cells, two days, XTT, read-out: CC50
[11] = pH 7.6, progress curves in enzyme start experiments, read-out: kobs/I
[12] = progress curves in enzyme start experiments

T1 sequence (P03303 1538-1719): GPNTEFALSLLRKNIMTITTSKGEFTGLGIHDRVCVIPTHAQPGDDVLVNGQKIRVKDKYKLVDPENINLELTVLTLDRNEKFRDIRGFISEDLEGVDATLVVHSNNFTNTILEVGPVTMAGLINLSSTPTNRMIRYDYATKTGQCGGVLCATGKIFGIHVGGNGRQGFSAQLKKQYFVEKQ
T3 sequence (P04936 1508-1690): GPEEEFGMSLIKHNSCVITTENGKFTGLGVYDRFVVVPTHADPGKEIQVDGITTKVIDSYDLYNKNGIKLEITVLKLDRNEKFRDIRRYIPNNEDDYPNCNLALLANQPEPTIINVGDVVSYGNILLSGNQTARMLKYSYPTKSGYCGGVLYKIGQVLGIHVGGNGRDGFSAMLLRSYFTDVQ
T4 sequence (P07210 1522-1704): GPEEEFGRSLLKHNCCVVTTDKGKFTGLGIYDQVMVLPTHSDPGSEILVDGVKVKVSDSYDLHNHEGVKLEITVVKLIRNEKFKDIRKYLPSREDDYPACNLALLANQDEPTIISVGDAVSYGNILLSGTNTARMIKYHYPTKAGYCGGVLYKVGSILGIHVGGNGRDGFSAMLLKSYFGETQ
T2 sequence (Q82122 1511-1693): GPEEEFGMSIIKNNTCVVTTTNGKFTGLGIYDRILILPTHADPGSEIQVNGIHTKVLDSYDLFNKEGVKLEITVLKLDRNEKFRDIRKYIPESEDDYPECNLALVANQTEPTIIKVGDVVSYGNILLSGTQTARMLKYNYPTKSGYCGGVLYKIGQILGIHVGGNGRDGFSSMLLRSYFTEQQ

SMILES	EC50 (HRV-14; Rhinovirus B, HRV14, 48 h) [µM]	Ki [1] [µM]	kinact/KI [1] [M⁻¹ s⁻¹]	CC50 at 2 days [5, 10] [µM]	EC50 (CVB-3; 24 h) [µM]	CC50 at 1 day [9] [µM]	further results
COC(=O)/C=C/[C@H](CCC(N)=O)NC(=O)[C@H](Cc1ccccc1)NC(=O)[C@H](CC(C)C)NC(=O)OCc1ccccc1 [Compound 11, Methyl-3-(CBZ-L-Leu-L-Phe-L-Gln)-E-Propenoate]	–	–	–	–	–	–	EC50 (CVB-3): 8.9 µM; EC50 (HRV-14): 1.3 µM; Ki ([1]; RVP serotype-14, 10 minute preincubation, substrate start, read-out: INHIB (Ki)): 28 µM; kobs/I ([1]; RVP serotype-14): 20,000 M-1 sec-1; CC50 (HI-HeLa cells [2]): > 320 µM; EC50 [3]: 0.0007 µM; CC50 (HI-HeLa cells [4]; mock-infected HI-HeLa cells, one day, XTT, read-out: CC50): > 320 µM
CC(C)C[C@H](NC(=O)OCc1ccccc1)C(=O)N[C@@H](Cc1ccccc1)C(=O)N[C@H](/C=C/C(=O)N(C)C)CCC(N)=O [Compound 22, N,N-Dimethyl-3-(CBZ-L-Leu-L-Phe-L-Gln)-E-Propenamide]	56.2	4.3	1300	251	–	–	melting point: 174 to 175 °C (dec.)
CCOC(=O)/C(F)=C\[C@H](CCC(N)=O)NC(=O)[C@H](Cc1ccccc1)NC(=O)[C@H](CC(C)C)NC(=O)OCc1ccccc1 [Compound 8, Ethyl-2-Fluoro-3-(CBZ-L-Leu-L-Phe-L-Gln)-E-Propenoate]	> 320	36	61	> 320	–	–	melting point: 210 to 211 °C
CC(=O)/C=C/[C@H](CCC(N)=O)NC(=O)[C@H](Cc1ccccc1)NC(=O)[C@H](CC(C)C)NC(=O)OCc1ccccc1 [Compound 13, 4-(CBZ-L-Leu-L-Phe-L-Gln)-E-3-Butene-2-one]	2	6.5	54000	58.9	> 100	> 100	kinact/KI [6]: 9000 M⁻¹ s⁻¹; kinact/KI [7, 11]: 2400 M⁻¹ s⁻¹; kinact/KI [8, 11]: 5500 M⁻¹ s⁻¹; EC50 ([3]; Epithelial cell): 0.0004 µM
CC(C)C[C@H](NC(=O)OCc1ccccc1)C(=O)N[C@@H](Cc1ccccc1)C(=O)N[C@H](/C=C/C(=O)N1CCCC1)CCC(N)=O [Compound 21, 1-Pyrrolidin-1-yl-3-(CBZ-L-Leu-L-Phe-L-Gln)-E-Propenone]	22.4	9.9	2100	> 100	158	> 320	–
CON(C)C(=O)/C=C/[C@H](CCC(N)=O)NC(=O)[C@H](Cc1ccccc1)NC(=O)[C@H](CC(C)C)NC(=O)OCc1ccccc1 [Compound 37]	4	18.8	5900	> 100	17.8	> 100	–
CCOC(=O)c1ccc(OCCC2CCN(c3ccc(C)nn3)CC2)cc1 [Pirodavir, reference compound]	0.03	–	–	–	> 100	> 100	CC50 at 2 days [5]: > 10 µM; EC50 ([3]; Epithelial cell): 0.0075 µM
CCOC(=O)/C=C/[C@H](CCC(N)=O)NC(=O)[C@H](Cc1ccccc1)NC(=O)[C@H](CC(C)C)NC(=O)OCc1ccccc1 [Compound 3, Ethyl-3-(CBZ-L-Leu-L-Phe-L-Gln)-E-Propenoate]	–	–	–	–	–	–	EC50 (CVB-3): 39.8 µM; kobs/I [7, 12]: 1,900 M-1 sec-1; EC50 (HRV-14): 0.61 µM; kobs/I [8, 12]: 3,400 M-1 sec-1; INHIB (percent inhibition) ([1]; RVP serotype-14, 0.1 μM compound, 10 minute preincubation with 50 nM RVP): 81(0.1) percent; kobs/I ([1]; RVP serotype-14): 37,000 M-1 sec-1; CC50 (HI-HeLa cells [2]): > 320 µM; EC50 [3]: 0.04 µM; CC50 (HI-HeLa cells [4]): > 320 µM
